The EC50 is the concentration that produces a half-maximal response.

We go through eleven molecules from paper PMC6672714 (Frontiers in Physiology, 2019).

Test [1] relates to intact pituitaries (GnRH1-induced CART secretion). Nature of the test: inhibition of GnRH1-induced CART secretion in intact pituitaries, Western blot. The test is classed as cell-based, chicken. Conditions: GnRH1 5 nM, 4 h, N = 3. The procedure:
As described in our recent study ([Huang et al., 2014]), the intact anterior pituitaries collected from 1-week-old male chicks were washed with PBS and placed on a 48-well plate (NUNC) supplemented with 400 μl serum-free Medium 199 (Invitrogen). After 1-h incubation at 37°C, the medium was replaced by 300 μl serum-free Medium 199 containing different concentrations of chicken GnRH1 or GnRH2 (0.1–100 nM) and incubated for 4 h.
One representative set of Western blotting is shown at the bottom.
On the technique in general: A western blot detects proteins with antibodies after separation by electrophoresis.

The subject of test [2] is cultured chick pituitary cells (GnRH1-induced CART mRNA). The test is classed as cell-based, chicken. Conditions: GnRH1 10 nM, 24 h, N = 4. The procedure:
(§1) As described in our recent studies ([Huang et al., 2014]; [Mo et al., 2015]), anterior pituitaries collected from 1-week-old chicks were sliced and digested by 0.25% trypsin at 37°C for 20 min. The dispersed pituitary cells were cultured at a density of 5 × 10^5 cells/well in Medium 199 supplemented with 15% fetal bovine serum in a Corning Cell BIND 48-well plates (Corning, Tewksbury, MA) at 37°C with 5% CO2. After 24-h culture, the medium was replaced with serum-free M199 medium and the cells were treated with chicken GnRH1/GnRH2 for the duration (12–48 h) or with increasing doses (0.1–100 nM) of each peptide. The total RNA was then extracted from cultured pituitary cells and the expression of CART and β-actin assayed by qPCR.
“ND” indicates no statistical difference between the two groups. Each data point represents mean ± SEM of four replicates (N = 4). ^**p < 0.01 vs. control; ^#p < 0.01 vs. GnRH1 treatment (in the absence of drug). […] Total ERK2 in cell lysates was also examined and used as internal controls. Note: only a single band for pERK2 or total ERK2 (42 kDa) was detected in cell lysate, because ERK1 gene is lost in chicken genome ([Gerilechaogetu et al., 2009]). The representative sets of independent experimental duplicates are shown here.
“ND” indicates no statistical difference between the two groups. Each data point represents mean ± SEM of four replicates (N = 4). ^**p < 0.01 vs. control. […] The β-actin in cell lysates were also examined and used as internal controls. The representative sets of independent experimental duplicates are shown here.

The subject of test [3] is cultured chick pituitary cells (CART mRNA). Nature of the test: CART mRNA expression in cultured chick pituitary cells, qPCR. The test is classed as cell-based, chicken. Conditions: N = 4.
Source text: Chicken anterior pituitaries were collected either for cell culture, or for total RNA extraction. Total RNA was extracted from chicken tissues or cultured pituitary cells using RNAzol (Molecular Research Center, Cincinnati, OH) and reversely transcribed using M-MLV reverse transcriptase (TaKaRa). Reverse transcription (RT) samples were then used for quantitative real-time PCR (qPCR) assays to investigate the mRNA expression of target genes, as described in our recent studies ([Cai et al., 2015]; [Mo et al., 2015]).
as §1
The data were analyzed by the Student’s t-test (between two groups) or by one-way ANOVA followed by the Dunnett test in GraphPad Prism 5 (GraphPad Software, San Diego, CA). To validate our results, all experiments were repeated at least three times.
The mRNA levels of CART were normalized by β-actin and expressed as the percentage of respective controls. Each value represents the mean ± SEM of four replicates (N = 4). ^*p < 0.05, ^**p < 0.01 vs. respective control. (E) RT-PCR detection of GnRHR2 expression in cultured chick pituitary cells (three replicates). RT was performed in the presence (+) or absence (−) of reverse transcriptase. Parallel PCR of β-actin was performed to serve as an internal control.
On the technique in general: Real-time PCR tracks product formation cycle by cycle.

For test [4], the system named is chicken GnRHR1. Nature of the test: pGL4-SRE-luciferase reporter, MAPK/ERK signaling pathway, CHO cells expressing chicken GnRHR1. The test is classed as cell-based. The settings on record: four replicates. The source says: (§2) Based on the reported cDNA sequences of chicken GnRHR1 and GnRHR2 (accession nos.: NM_204653; NM_001012609) ([Sun et al., 2001]; [Shimizu and Bedecarrats, 2006]), gene-specific primers were used to amplify the open reading frame from adult chicken anterior pituitaries using high-fidelity Taq DNA polymerase (TOYOBO, Japan). The amplified PCR products were cloned into the pcDNA3.1 (+) expression vector (Invitrogen) and sequenced. According to our previously established methods, the signaling property of each receptor was examined in Chinese hamster ovary (CHO) cells using pGL3-NFAT-RE-luciferase ([Wang et al., 2012]), pGL4-SRE-luciferase ([Mo et al., 2015]), and pGL3-CRE-luciferase reporter systems ([Wang et al., 2007]).
(§3) Although two GnRH receptors (GnRHR1 and GnRHR2) have been identified in chickens ([Sun et al., 2001]; [Shimizu and Bedecarrats, 2006]; [Joseph et al., 2009]), their downstream signaling pathways have not been fully characterized.
(§4) Figure 5 Activation of chicken GnRHR1 or GnRHR2 expressed in CHO cells by chicken GnRH1 or GnRH2, monitored by pGL3-NFAT-RE-luciferase (A,D), pGL4-SRE-luciferase (B,E), and pGL3-CRE-luciferease (C,F) reporter systems. […] Each data point represents mean ± SEM of four replicates (N = 4).

Test [5] has as its system intact anterior pituitaries (CART secretion). Nature of the test: CART peptide secretion from intact anterior pituitaries incubated in vitro, Western blot. The test is classed as cell-based, chicken. Conditions: 4 h, intact chick pituitaries, N = 3. The procedure: As described in our recent study ([Huang et al., 2014]), the intact anterior pituitaries collected from 1-week-old male chicks were washed with PBS and placed on a 48-well plate (NUNC) supplemented with 400 μl serum-free Medium 199 (Invitrogen). After 1-h incubation at 37°C, the medium was replaced by 300 μl serum-free Medium 199 containing different concentrations of chicken GnRH1 or GnRH2 (0.1–100 nM) and incubated for 4 h. […] Parallel blotting of β-actin and CART in pituitary tissue lysates was also conducted.
The intracellular CART (iCART) and β-actin levels in the pituitary tissue lysate were also examined in parallel. […] Each data point represents mean ± SEM of three replicates (N = 3). ^*p < 0.05; ^**p < 0.01 vs. respective control. […] One representative set of Western blot is shown at the top of each graph.

The test system of test [6] is chicken GnRHR2. Nature of the test: pGL3-CRE-luciferase reporter, cAMP/PKA signaling pathway, CHO cells expressing chicken GnRHR2. The test is classed as cell-based. The settings on record: four replicates.
Source text: as §2, §3, §4
(Reporter assays use an easily measured gene product as a stand-in for the process of interest.)

For test [7], the system named is chicken GnRHR2. Nature of the test: three cell-based luciferase reporter assays, GnRHR2 (qualitative).
Source text: as §2, §3, §4

Test [8] concerns chicken GnRHR1. Nature of the test: pGL3-CRE-luciferase reporter, cAMP/PKA signaling pathway, CHO cells expressing chicken GnRHR1. The test is classed as cell-based. The settings on record: four replicates.
Source text: as §2, §3, §4

The test system of test [9] is chicken GnRHR1. Nature of the test: three cell-based luciferase reporter assays, GnRHR1 (qualitative). The settings on record: GnRHR1, CHO cells, calcium, MAPK/ERK and cAMP/PKA reporters.
Source text: as §2, §3, §4

Test [10] concerns chicken GnRHR1. Nature of the test: pGL3-NFAT-RE-luciferase reporter, calcium signaling pathway, CHO cells expressing chicken GnRHR1. The test is classed as cell-based. The settings on record: four replicates.
Source text: as §2, §3, §4

Test [11] relates to chicken GnRHR2. Nature of the test: pGL3-NFAT-RE-luciferase reporter, calcium signaling pathway, CHO cells expressing chicken GnRHR2. The test is classed as cell-based. The settings on record: four replicates.
Source text: as §2, §3, §4

Test [12] has as its system chicken GnRHR2. Nature of the test: pGL4-SRE-luciferase reporter, MAPK/ERK signaling pathway, CHO cells expressing chicken GnRHR2. Conditions: four replicates. The test is classed as cell-based.
Source text: as §2, §3, §4

“Also recorded” adds a separate entry of the source. Like-named read-outs stand apart in the source and are kept apart here. No end group written: not given here.

Regarding `NCCOB(c1ccccc1)c1ccccc1` [2-APB, 2-aminoethoxydiphenyl borate], in test [1] (2-APB 100 μM), the “effect on GnRH1-induced CART secretion” value is given as “significantly inhibited”.

Regarding `CN([C@@H](Cc1ccc(OS(=O)(=O)c2cccc3cnccc23)cc1)C(=O)N1CCN(c2ccccc2)CC1)S(=O)(=O)c1cccc2cnccc12` [KN62], in test [2] (KN62 5 μM), the “effect on GnRH1-induced CART mRNA expression” value is listed as “could inhibit GnRH1-induced CART mRNA expression”.

For the molecule `Cl.c1ccc(C2CCCC2NC2=NCCCCCCCCCCC2)cc1` (stereo not drawn) [MDL12330A], the “effect on GnRH1-induced CART mRNA expression” value in test [2] (MDL12330A 20 μM) is reported as “could abolish GnRH1-induced CART expression”.

Take `COc1cccc(-c2cc(=O)c3ccccc3o2)c1N` [PD98059]: in test [2] (PD98059 100 μM), the “effect on GnRH1-induced CART mRNA expression” value was “could inhibit GnRH1-induced CART mRNA expression”.

For `COc1ccc2c(c1)CC[C@@H]1[C@@H]2CC[C@]2(C)[C@@H](NCCCCCCN3C(=O)C=CC3=O)CC[C@@H]12` [U73122], in test [2] (U73122 20 μM), the “effect on GnRH1-induced CART mRNA expression” value is on record as “could inhibit GnRH1-induced CART mRNA expression”. Moreover, in [1] (U73122 20 μM), the “effect on GnRH1-induced CART secretion” value was “significantly inhibited”.

For `Clc1ccc(C(c2ccc(Cl)cc2)n2cc[n+](CC(OCc3ccc(Cl)cc3Cl)c3ccc(Cl)cc3Cl)c2)cc1` (stereo not drawn) [calmidazolium], the “effect on GnRH1-induced CART mRNA expression” value in [2] (calmidazolium 1 μM) is “could inhibit GnRH1-induced CART mRNA expression”.

Regarding `COc1c(C[C@@H](C)OC(=O)Oc2ccc(O)cc2)c2c3c(C[C@@H](C)OC(=O)c4ccccc4)c(OC)c(=O)c4c(O)cc(OC)c(c5c(OC)cc(O)c(c1=O)c52)c43` [calphostin C], the “effect on GnRH1-induced CART mRNA expression” value in [2] (calphostin C 200 nM) is listed as “could inhibit GnRH1-induced CART mRNA expression”.

As for `C=C[C@@]1(C)CC(=O)[C@]2(O)[C@@]3(C)[C@@H](O)CCC(C)(C)[C@@H]3[C@H](O)[C@H](OC(C)=O)[C@@]2(C)O1` [forskolin, reference compound], the “effect on CART mRNA expression” value in [3] (forskolin 2 μM, 24 h) is listed as “could mimic GnRH1 action on CART expression”.

With `COC(=O)C1=C(C)NC(C)=C(C(=O)OC)C1c1ccccc1[N+](=O)[O-]` [nifedipine], the “effect on GnRH1-induced CART mRNA expression” value in [2] (nifedipine 5 μM) is on record as “could inhibit GnRH1-induced CART mRNA expression”. In test [1] (nifedipine 5 μM), the “effect on GnRH1-induced CART secretion” value is listed as “significantly inhibited”.

Consider `C/C=C(/C)C(=O)O[C@H]1C(C)=C2[C@H]([C@@H]1OC(=O)CCCCCCC)[C@@](C)(OC(C)=O)C[C@H](OC(=O)CCC)[C@@]1(O)[C@H]2OC(=O)[C@@]1(C)O` [thapsigargin], for which, in test [2] (thapsigargin 100 nM), the “effect on GnRH1-induced CART mRNA expression” value was “could inhibit GnRH1-induced CART mRNA expression”.

Take “GnRH2: chicken gonadotropin-releasing hormone 2, synthesized using solid-phase Fmoc chemistry (QHWSHGWYPG; not fully specified; ends and bridges not checked; UniProt P68072 1-10, looked up)”: in test [3] (10 nM time course or 0–100 nM for 48 h, qPCR), the “effect on CART mRNA expression, time and dose dependence” value is “induce CART expression in time- and dose-dependent manners”. Also, the EC50 in the test with chicken GnRHR1 [4] came out at 3.1 nM; in the test on chicken GnRHR2 [6], 0.27 nM; in the test on chicken GnRHR1 [8], 0.69 nM; with chicken GnRHR1 [10] it was 0.39 nM; in the test with chicken GnRHR2 [11], 0.26 nM; with chicken GnRHR2 [12] it was 2.84 nM. Further, in [5] (0–100 nM), the “secretion of mature CART peptide” value is “potently stimulated the secretion of mature CART peptide”. In addition, the “minimal effective concentration, CART secretion” value in test [5] is given as 1 nM. Also, in the test with chicken GnRHR2 [7] (GnRH2 compared with GnRH1, GnRHR2, CHO cells), the “relative potency at GnRHR2” value is reported as “slightly more potent than GnRH1”. The “activation of GnRHR2 (luciferase activity)” value in the test on chicken GnRHR2 [7] (GnRHR2, CHO cells, calcium, MAPK/ERK and cAMP/PKA reporters) is “stimulate the luciferase activities dose-dependently; also recorded: potently activated by both GnRH1 and GnRH2”. For the same molecule, the “activation of GnRHR1 (luciferase activity)” value in the test on chicken GnRHR1 [9] is listed as “stimulate the luciferase activities dose-dependently; also recorded: potently activated by GnRH2”.
